Laboratory results taken from ChEMBL document CHEMBL1150383, “Synthesis and pharmacological evaluation of peptide-mimetic protease-activated receptor-1 antagonists containing novel heterocyclic scaffolds” (Bioorg Med Chem, 2008).
Calls of active or inactive are those of the source. The rule behind the calls is not given here.

Assays:
[1] = biological target: T1, Proteinase-activated receptor 1 (Rattus norvegicus) (UniProt P26824); assay: Antagonist activity at PAR1 receptor assessed as reduction of PAR1AP-induced aortic ring contraction in Wistar rat at 10 to 100 uM after 15 mins; type: functional
T1 sequence (whole entry): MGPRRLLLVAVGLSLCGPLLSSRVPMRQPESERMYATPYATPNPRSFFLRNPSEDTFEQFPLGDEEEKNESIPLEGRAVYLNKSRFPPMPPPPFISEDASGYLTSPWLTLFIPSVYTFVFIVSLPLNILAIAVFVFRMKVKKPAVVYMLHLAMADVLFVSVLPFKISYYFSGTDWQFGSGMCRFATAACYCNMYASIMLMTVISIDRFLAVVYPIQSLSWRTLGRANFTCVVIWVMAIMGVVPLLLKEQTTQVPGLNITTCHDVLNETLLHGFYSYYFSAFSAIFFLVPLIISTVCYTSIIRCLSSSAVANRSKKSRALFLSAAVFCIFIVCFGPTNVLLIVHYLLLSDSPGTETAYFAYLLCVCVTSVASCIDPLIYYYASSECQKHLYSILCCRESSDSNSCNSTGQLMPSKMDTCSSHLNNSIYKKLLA

[2] = biological target: T2, Proteinase-activated receptor 1 (Homo sapiens) (UniProt P25116); assay: Antagonist activity at PAR1 receptor assessed as inhibition of PAR1AP-induced platelet aggregation in human blood after 10 mins by chronolog dual channel aggregometry; type: functional
T2 sequence (whole entry): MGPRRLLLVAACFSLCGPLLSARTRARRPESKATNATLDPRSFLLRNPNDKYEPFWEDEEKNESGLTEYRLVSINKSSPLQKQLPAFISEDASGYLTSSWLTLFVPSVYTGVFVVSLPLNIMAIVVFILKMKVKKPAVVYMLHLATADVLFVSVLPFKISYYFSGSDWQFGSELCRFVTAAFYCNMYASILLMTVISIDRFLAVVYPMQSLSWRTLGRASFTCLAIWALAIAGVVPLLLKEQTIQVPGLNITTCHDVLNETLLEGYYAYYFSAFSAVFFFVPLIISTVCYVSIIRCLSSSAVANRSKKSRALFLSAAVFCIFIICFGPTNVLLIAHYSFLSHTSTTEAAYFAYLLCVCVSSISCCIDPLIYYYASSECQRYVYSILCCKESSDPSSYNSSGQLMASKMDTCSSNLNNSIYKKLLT

Structure (SMILES) | Activity [1] | IC75 [2] [nM] | Activity [2]
Cc1c(CN2CCCC2)c2ccc(NC(=O)N[C@@H](Cc3ccc(F)c(F)c3)C(=O)N[C@@H](CCCNC(=N)N)C(=O)NCc3ccccc3)cc2n1Cc1c(Cl)cccc1Cl | 31 dyn/mg | 50 | –
COc1ccc(C[C@H](NC(=O)Nc2ccc3c(c2)c(CN2CCCC2)c(C)n3Cc2c(Cl)cccc2Cl)C(=O)N[C@@H](CCCNC(=N)N)C(=O)NCc2ccccc2)cc1 | inactive | – | inactive
Cc1c(CN2CCCC2)c2cc(NC(=O)N[C@@H](Cc3ccc4ccccc4c3)C(=O)N[C@@H](CCCNC(=N)N)C(=O)NCc3ccccc3)ccc2n1Cc1c(Cl)cccc1Cl | inactive | – | inactive
COc1ccc(C[C@H](NC(=O)Nc2ccc3c(CN4CCCC4)c(C)n(Cc4c(Cl)cccc4Cl)c3c2)C(=O)N[C@@H](CCCNC(=N)N)C(=O)NCc2ccccc2)cc1 | Active | 20 | –
COc1ccc(C[C@H](NC(=O)Nc2ccc3c(CN4CCCC4)cn(Cc4c(Cl)cccc4Cl)c3c2)C(=O)N[C@@H](CCCNC(=N)N)C(=O)NCc2ccccc2)cc1 | 94 dyn/mg | 100 | –
Cc1c(CN2CCCC2)c2ccc(NC(=O)N[C@@H](Cc3ccc4ccccc4c3)C(=O)N[C@@H](CCCNC(=N)N)C(=O)NCc3ccccc3)cc2n1Cc1c(Cl)cccc1Cl | Active | 800 | –

The next lines start with the values.

Activity [1] | IC75 [2] [nM] | Activity [2] | Structure (SMILES)
inactive | – | inactive | Cc1c(CN2CCCC2)c2cc(NC(=O)N[C@@H](Cc3cccc4ccccc34)C(=O)N[C@@H](CCCNC(=N)N)C(=O)NCc3ccccc3)ccc2n1Cc1c(Cl)cccc1Cl
inactive | – | inactive | Cc1c(CN2CCCC2)c2cc(NC(=O)N[C@@H](Cc3ccc(F)c(F)c3)C(=O)N[C@@H](CCCNC(=N)N)C(=O)NCc3ccccc3)ccc2n1Cc1c(Cl)cccc1Cl
